Each structure is given as a SMILES string. Structures can show the parent of a compound that is named as a salt. Where two headings read alike, the source gives them in different places.

Holding throughout (experiment): AK assay 384-well format, Prestwick library screening
The subject of one test is K. pneumoniae. Format: cell-based, Klebsiella pneumoniae. The following applies: 50 μM final drug concentration; for fold induction at 50 µM: Klebsiella pneumoniae, 3 h.
Another test concerns P. aeruginosa. Format: cell-based, Pseudomonas aeruginosa. The following applies: 50 μM final drug concentration; for fold induction at 50 µM: Pseudomonas aeruginosa, 3 h.
The subject of a further test is E. cloacae. The test is classed as cell-based, Enterobacter cloacae. The following applies: 50 μM final drug concentration; for fold induction at 50 µM: Enterobacter cloacae, 3 h.
The subject of another test is E. faecium. Format: cell-based, Enterococcus faecium. Conditions: 50 μM final drug concentration; for fold induction at 50 µM: Enterococcus faecium, 3 h.
Test [1] concerns S. aureus strain USA300-0114. Format: cell-based, Staphylococcus aureus. Conditions: 50 μM final drug concentration; for fold induction at 50 µM: Staphylococcus aureus, USA300, 3 h.
Test [2] deals with A. baumannii strain 98-37-09. Format: cell-based, Acinetobacter baumannii. Conditions: 50 μM final drug concentration; for fold induction at 50 µM: Acinetobacter baumannii, 983709, 3 h.
The subject of a further test is E. coli. Format: cell-based, Escherichia coli. The following applies: 50 μM final drug concentration; for fold induction at 50 µM: Escherichia coli, 3 h.
The mark [3] stands for this setting: cutoff for positive-scoring molecules 3-fold increase, read-out: AK-based Prestwick Library Screening Results, K. pneumoniae (fold increase in extracellular AK activity).
Where [4] appears, read: cutoff for positive-scoring molecules 3-fold increase, read-out: AK-based Prestwick Library Screening Results, P. aeruginosa (fold increase in extracellular AK activity).
Setting [5] is: cutoff for positive-scoring molecules 3-fold increase, read-out: AK-based Prestwick Library Screening Results, E. cloacae (fold increase in extracellular AK activity).
The mark [6] stands for this setting: cutoff for positive-scoring molecules 3-fold increase, read-out: AK-based Prestwick Library Screening Results, E. faecium (fold increase in extracellular AK activity).
Where [7] appears, read: cutoff for positive-scoring molecules 3-fold increase, read-out: AK-based Prestwick Library Screening Results, S. aureus (fold increase in extracellular AK activity).
[8] abbreviates: cutoff for positive-scoring molecules 3-fold increase, read-out: AK-based Prestwick Library Screening Results, A. baumannii (fold increase in extracellular AK activity).
Setting [9] is: cutoff for positive-scoring molecules 3-fold increase, read-out: AK-based Prestwick Library Screening Results, E. coli (fold increase in extracellular AK activity).
[10] abbreviates: planktonic, cutoff for positive-scoring molecules 3-fold increase, read-out: AK-based Prestwick Library Screening Results, K. pneumoniae (fold increase in extracellular AK activity).
Setting [11] is: planktonic, cutoff for positive-scoring molecules 3-fold increase, read-out: AK-based Prestwick Library Screening Results, P. aeruginosa (fold increase in extracellular AK activity).
Setting [12] is: planktonic, cutoff for positive-scoring molecules 3-fold increase, read-out: AK-based Prestwick Library Screening Results, E. cloacae (fold increase in extracellular AK activity).
[13] abbreviates: planktonic, cutoff for positive-scoring molecules 3-fold increase, read-out: AK-based Prestwick Library Screening Results, E. faecium (fold increase in extracellular AK activity).
[14] abbreviates: planktonic, cutoff for positive-scoring molecules 3-fold increase, read-out: AK-based Prestwick Library Screening Results, S. aureus (fold increase in extracellular AK activity).
Where [15] appears, read: planktonic, cutoff for positive-scoring molecules 3-fold increase, read-out: AK-based Prestwick Library Screening Results, A. baumannii (fold increase in extracellular AK activity).
Where [16] appears, read: planktonic, cutoff for positive-scoring molecules 3-fold increase, read-out: AK-based Prestwick Library Screening Results, E. coli (fold increase in extracellular AK activity).
Setting [17] is: cutoff for positive-scoring molecules 3-fold increase.
Setting [18] is: planktonic, cutoff for positive 3-fold increase.
The mark [19] stands for this setting: planktonic K. pneumoniae, positive cutoff 3-fold increase, read-out: AK-based Prestwick library screening result, K. pneumoniae (fold increase in extracellular AK activity).
Setting [20] is: planktonic P. aeruginosa, positive cutoff 3-fold increase, read-out: AK-based Prestwick library screening result, P. aeruginosa (fold increase in extracellular AK activity).
Setting [21] is: planktonic E. cloacae, positive cutoff 3-fold increase, read-out: AK-based Prestwick library screening result, E. cloacae (fold increase in extracellular AK activity).
The mark [22] stands for this setting: planktonic E. faecium, positive cutoff 3-fold increase, read-out: AK-based Prestwick library screening result, E. faecium (fold increase in extracellular AK activity).
Setting [23] is: planktonic S. aureus, positive cutoff 3-fold increase, read-out: AK-based Prestwick library screening result, S. aureus (fold increase in extracellular AK activity).
Setting [24] is: planktonic A. baumannii, positive cutoff 3-fold increase, read-out: AK-based Prestwick library screening result, A. baumannii (fold increase in extracellular AK activity).
Where [25] appears, read: planktonic E. coli, positive cutoff 3-fold increase, read-out: AK-based Prestwick library screening result, E. coli (fold increase in extracellular AK activity).

Turning to `CC(=O)Nc1ccc(O)cc1` [Acetaminophen], the fold induction at 50 µM in the test with K. pneumoniae (setting [3]) was determined as 1.2; in the test with P. aeruginosa (setting [4]), 1.1; in the test with E. cloacae (setting [5]) it was 1.6; with E. faecium (setting [6]), 1; in test [1] (setting [7]) it was 1.6; in test [2] (setting [8]) it was 1.5. Further, the fold induction at 50 µM with E. coli (setting [9]) turned out to be 1.4.
In the case of `CN(C)CCC(c1ccccc1)c1ccccn1` (stereo not shown) [Pheniramine maleate], the fold induction at 50 µM was 1 with K. pneumoniae (planktonic K. pneumoniae, 384-well, […], read-out: AK-based Prestwick Library Screening Results: K. pneumoniae (increase in extracellular AK activity)); 1 in the test with P. aeruginosa (planktonic P. aeruginosa, 384-well, […], read-out: AK-based Prestwick Library Screening Results: P. aeruginosa (increase in extracellular AK activity)); 1.7 in the test with E. cloacae (planktonic E. cloacae, 384-well, […], read-out: AK-based Prestwick Library Screening Results: E. cloacae (increase in extracellular AK activity)); 1 in the test on E. faecium (planktonic E. faecium, 384-well, […], read-out: AK-based Prestwick Library Screening Results: E. faecium (increase in extracellular AK activity)); 1 in test [1] (planktonic S. aureus, 384-well, […], read-out: AK-based Prestwick Library Screening Results: S. aureus (increase in extracellular AK activity)); 1 in test [2] (planktonic A. baumannii, 384-well, […], read-out: AK-based Prestwick Library Screening Results: A. baumannii (increase in extracellular AK activity)). Moreover, the fold induction at 50 µM with E. coli (planktonic E. coli, 384-well, […], read-out: AK-based Prestwick Library Screening Results: E. coli (increase in extracellular AK activity)) is 1.4.
`CN1[C@@H](CC(=O)c2ccccc2)CCC[C@H]1C[C@H](O)c1ccccc1.Cl` [Lobeline alpha (−) hydrochoride]: the “AK-based Prestwick Library Screening Results, K. pneumoniae (increase in extracellular AK activity)” value with K. pneumoniae (planktonic K. pneumoniae, […]) came out at 0.7. Moreover, in the test with P. aeruginosa (planktonic P. aeruginosa, […]), the “AK-based Prestwick Library Screening Results, P. aeruginosa (increase in extracellular AK activity)” value was determined as 0.9. For the same compound, the “AK-based Prestwick Library Screening Results, E. cloacae (increase in extracellular AK activity)” value in the test on E. cloacae (planktonic E. cloacae, […]) is recorded as 1.0. Further, the “AK-based Prestwick Library Screening Results, E. faecium (increase in extracellular AK activity)” value in the test on E. faecium (planktonic E. faecium, […]) came to 0.9. Further, the “AK-based Prestwick Library Screening Results, S. aureus (increase in extracellular AK activity)” value in test [1] (planktonic S. aureus, […]) was 0.8. Also, the “AK-based Prestwick Library Screening Results, A. baumannii (increase in extracellular AK activity)” value in test [2] (planktonic A. baumannii, […]) was 0.8. For the same compound, in the test with E. coli (planktonic E. coli, […]), the “AK-based Prestwick Library Screening Results, E. coli (increase in extracellular AK activity)” value is 1.0.
With `CCCCCN(CCCCC)C(=O)C(CCC(=O)O)NC(=O)c1ccc(Cl)c(Cl)c1` (stereo not shown) [Lorglumide sodium salt], the fold induction at 50 µM in the test with K. pneumoniae (setting [10]) turned out to be 0.7; in the test with P. aeruginosa (setting [11]) it was 0.9; with E. cloacae (setting [12]), 1.3; in the test on E. faecium (setting [13]), 1; in test [1] (setting [14]), 0.3; in test [2] (setting [15]) it was 0.8. The fold induction at 50 µM with E. coli (setting [16]) amounted to 0.9.
For the compound `CC[C@H](c1ccc(O)cc1)[C@@H](CC)c1ccc(O)cc1` [Hexestrol], the fold induction at 50 µM was found to be 0.7 with K. pneumoniae (setting [3]); 1.1 in the test on P. aeruginosa (setting [4]); 1.6 with E. cloacae (setting [5]); 1.2 with E. faecium (setting [6]); 0.7 in test [1] (setting [7]); 3 in test [2] (setting [8]). In addition, in the test with E. coli (setting [9]), the fold induction at 50 µM stood at 1.4.
In the case of `Cc1c(N(C)CS(=O)(=O)[O-])c(=O)n(-c2ccccc2)n1C.[Na+]` [Dipyrone], the “AK-based Prestwick Library Screening Results, K. pneumoniae (fold increase in extracellular AK activity)” value in the test with K. pneumoniae (setting [17]) came to 1.1. The “AK-based Prestwick Library Screening Results, P. aeruginosa (fold increase in extracellular AK activity)” value in the test with P. aeruginosa (setting [17]) is 1.1. Moreover, in the test on E. cloacae (setting [17]), the “AK-based Prestwick Library Screening Results, E. cloacae (fold increase in extracellular AK activity)” value stood at 1.4. Moreover, the “AK-based Prestwick Library Screening Results, E. faecium (fold increase in extracellular AK activity)” value with E. faecium (setting [17]) was determined as 1.0. The “AK-based Prestwick Library Screening Results, S. aureus (fold increase in extracellular AK activity)” value in test [1] (setting [17]) is given as 1.4. Further, the “AK-based Prestwick Library Screening Results, A. baumannii (fold increase in extracellular AK activity)” value in test [2] (setting [17]) was 1.1. Besides, the “AK-based Prestwick Library Screening Results, E. coli (fold increase in extracellular AK activity)” value in the test with E. coli (setting [17]) worked out at 1.1.
Take `COc1c2occc2cc2ccc(=O)oc12` [Methoxy-8-psoralen]: the “AK-based Prestwick Library Screening Results, K. pneumoniae (fold increase in extracellular AK activity)” value with K. pneumoniae (setting [18]) was 0.9. Further, the “AK-based Prestwick Library Screening Results, P. aeruginosa (fold increase in extracellular AK activity)” value with P. aeruginosa (setting [18]) was determined as 1.0. Further, the “AK-based Prestwick Library Screening Results, E. cloacae (fold increase in extracellular AK activity)” value in the test on E. cloacae (setting [18]) was determined as 1.5. The “AK-based Prestwick Library Screening Results, E. faecium (fold increase in extracellular AK activity)” value in the test with E. faecium (setting [18]) was determined as 1.1. Further, the “AK-based Prestwick Library Screening Results, S. aureus (fold increase in extracellular AK activity)” value in test [1] (setting [18]) was 1.0. The “AK-based Prestwick Library Screening Results, A. baumannii (fold increase in extracellular AK activity)” value in test [2] (setting [18]) came out at 1.0. In addition, in the test with E. coli (setting [18]), the “AK-based Prestwick Library Screening Results, E. coli (fold increase in extracellular AK activity)” value was 1.1.
Take `CC(C)(Oc1ccc(C2CC2(Cl)Cl)cc1)C(=O)O` (stereo not shown) [Ciprofibrate]: the fold induction at 50 µM stood at 0.8 with K. pneumoniae (setting [19]); 0.7 with P. aeruginosa (setting [20]); 1.2 with E. cloacae (setting [21]); 0.9 in the test with E. faecium (setting [22]); 0.7 in test [1] (setting [23]); 0.8 in test [2] (setting [24]). For the same compound, the fold induction at 50 µM in the test with E. coli (setting [25]) was 0.8.
Consider `CC1CCc2c(N3CCC(O)CC3)c(F)cc3c(=O)c(C(=O)O)cn1c23` (stereo not shown) [Nadifloxacin], for which the fold induction at 50 µM with K. pneumoniae (setting [19]) was 5.2; in the test on P. aeruginosa (setting [20]), 17.7; in the test on E. cloacae (setting [21]), 1.7; with E. faecium (setting [22]), 2.8; in test [1] (setting [23]) it was 4.3; in test [2] (setting [24]), 2.9. The fold induction at 50 µM in the test on E. coli (setting [25]) came out at 13.4.
Regarding `CO[C@@H]1[C@@H](OC(N)=O)[C@@H](O)[C@H](Oc2ccc3c(O)c(NC(=O)c4ccc(O)c(CC=C(C)C)c4)c(=O)oc3c2C)OC1(C)C` [Novobiocin sodium salt], the fold induction at 50 µM was found to be 0.7 with K. pneumoniae (setting [10]); 1 in the test with P. aeruginosa (setting [11]); 1.6 in the test on E. cloacae (setting [12]); 1.5 in the test on E. faecium (setting [13]); 4.5 in test [1] (setting [14]); 1.1 in test [2] (setting [15]). For the same compound, in the test with E. coli (setting [16]), the fold induction at 50 µM amounted to 3.2.
